assay: water solubility / miscibility with water; assay type: physicochemical

SMILES | water solubility (miscibility with water)
CCCC[n+]1cccc(C)c1.N#C[N-]C#N [N-butyl-3-methylpyridinium dicyanamide, 3-Methyl-1-butylpyridinium dicyanamide] | water-miscible
CCCC[n+]1ccccc1.N#C[N-]C#N [N-butylpyridinium dicyanamide] | water-miscible
CCCCCCCC[n+]1cccc(C)c1.N#C[N-]C#N [N-octyl-3-methylpyridinium dicyanamide, 3-Methyl-1-octylpyridinium dicyanamide] | water-immiscible
CCCCCCCC[n+]1ccccc1.N#C[N-]C#N [N-octylpyridinium dicyanamide] | water-immiscible

— US20120330023A1, “Alkyl Pyridinium Dicyanamides and Method For The Production Thereof” (LONZA AG, priority 2004, published 2012)
